In ChEMBL document CHEMBL3885861, “Open TG-GATES”:

Species on record: Rattus norvegicus
Test: Open TG-GATES - Regimen: Single
Assay type: toxicity, organism-based, Sprague-Dawley
Set-up: regimen Single, gender Male, age 6 weeks
Settings: in vivo, iv, route intravenous injection; for APTT / Bas / Eos / Fbg / Lym / MCHC / MCV / Mono / Neu / Plat / RBC / Ret / WBC / Ht / PT / Hb: tissue Blood; for KIDNEY_L / KIDNEY_R / KIDNEY_TOTAL: tissue Kidney; for LIVER: tissue Liver
[1] = 0 mg/kg, 3 h, dose level Control
[2] = 0 mg/kg, 3 h, tissue Plasma, dose level Control
[3] = 0 mg/kg, 6 h, dose level Control
[4] = 0 mg/kg, 6 h, tissue Plasma, dose level Control
[5] = 0 mg/kg, 9 h, dose level Control
[6] = 0 mg/kg, 9 h, tissue Plasma, dose level Control
[7] = 0 mg/kg, 24 h, dose level Control
[8] = 0 mg/kg, 24 h, tissue Plasma, dose level Control

GENTAMICIN gave a TERMINAL_BW [1] of 212.9 g, an APTT [1] of 22 s and a Bas [1] of 0%. The Eos [1] was 0.8%, the Fbg [1] was 293.2 mg/dL and the Lym [1] was 79.6%. It also gave an MCHC [1] of 33.9%, an MCV [1] of 61.4 fL and a Mono [1] of 2.8%. For the same sequence, the Neu [1] was 16%, the Plat [1] was 119.4 x10_4/uL and the RBC [1] was 631.2 x10_4/ul. It also gave a Ret [1] of 6.4%, a WBC [1] of 123.3 x10_2/uL and a KIDNEY_L [1] of 0.9 g. For the same sequence, the KIDNEY_R [1] was 0.9 g, the KIDNEY_TOTAL [1] was 1.9 g and the LIVER [1] was 9.3 g. For the same sequence, the ALP [2] was 1296.6 IU/L, the ALT [2] was 39.2 IU/L and the AST [2] was 70.6 IU/L. It also gave a CRE [2] of 0.2 mg/dL, a DBIL [2] of 0 mg/dL and a GLC [2] of 187.4 mg/dL. It also gave an IP [2] of 7.4 mg/dL, a K [2] of 4.4 meq/L and an LDH [2] of 165.6 IU/L. It also gave a PL [2] of 121.4 mg/dL, an RALB [2] of 2.9 g/dL and a TBIL [2] of 0.022 mg/dL. The TC [2] was 63.6 mg/dL, the TG [2] was 71 mg/dL and the TP [2] was 5.3 g/dL. The gamma-GTP [2] was 1.2 IU/L, the TERMINAL_BW [3] was 209.6 g and the APTT [3] was 23.6 s. The Bas [3] was 0%, the Eos [3] was 0.6% and the Fbg [3] was 270.6 mg/dL. For the same sequence, the Ht [3] was 39.7%, the MCHC [3] was 33.6% and the Mono [3] was 2.6%. It also gave a PT [3] of 16.4 s, a Plat [3] of 119.5 x10_4/uL and an RBC [3] of 629 x10_4/ul. For the same sequence, the Ret [3] was 7%, the WBC [3] was 123.2 x10_2/uL and the KIDNEY_L [3] was 0.9 g. For the same sequence, the KIDNEY_R [3] was 0.9 g, the KIDNEY_TOTAL [3] was 1.8 g and the LIVER [3] was 8.7 g. For the same sequence, the ALP [4] was 1253 IU/L, the ALT [4] was 36.6 IU/L and the AST [4] was 70.2 IU/L. For the same sequence, the BUN [4] was 11.2 mg/dL, the CRE [4] was 0.2 mg/dL and the DBIL [4] was 0 mg/dL. It also gave an IP [4] of 8.3 mg/dL, a K [4] of 4.4 meq/L and an LDH [4] of 199.6 IU/L. The RALB [4] was 2.9 g/dL, the TBIL [4] was 0.018 mg/dL and the TC [4] was 74 mg/dL. The TG [4] was 75 mg/dL, the TP [4] was 5.3 g/dL and the gamma-GTP [4] was 1.2 IU/L. The APTT [5] was 22.8 s, the Bas [5] was 0% and the Eos [5] was 1%. For the same sequence, the Fbg [5] was 313.6 mg/dL, the Hb [5] was 12.9 g/dL and the Ht [5] was 38.5%. The Lym [5] was 82%, the MCHC [5] was 33.5% and the MCV [5] was 61.2 fL. For the same sequence, the Mono [5] was 2.6%, the PT [5] was 16 s and the Plat [5] was 124.4 x10_4/uL. It also gave an RBC [5] of 628 x10_4/ul, a Ret [5] of 6.9% and a WBC [5] of 82.5 x10_2/uL. The KIDNEY_L [5] was 0.9 g, the KIDNEY_R [5] was 0.9 g and the KIDNEY_TOTAL [5] was 1.8 g. The LIVER [5] was 8.3 g, the ALP [6] was 1527.6 IU/L and the ALT [6] was 36.4 IU/L. It also gave an AST [6] of 67.4 IU/L, a CRE [6] of 0.2 mg/dL and a DBIL [6] of 0 mg/dL. It also gave a GLC [6] of 199.2 mg/dL, an IP [6] of 9.5 mg/dL and a K [6] of 4.1 meq/L. It also gave an LDH [6] of 131.6 IU/L, a PL [6] of 126.2 mg/dL and an RALB [6] of 2.9 g/dL. For the same sequence, the TBIL [6] was 0.022 mg/dL, the TG [6] was 38.2 mg/dL and the TP [6] was 5.4 g/dL. The gamma-GTP [6] was 1.2 IU/L, the TERMINAL_BW [7] was 228.2 g and the APTT [7] was 23.4 s. For the same sequence, the Bas [7] was 0%, the Eos [7] was 1% and the Fbg [7] was 293.6 mg/dL. For the same sequence, the Ht [7] was 38.2%, the MCHC [7] was 34.3% and the MCV [7] was 61.9 fL. It also gave a Mono [7] of 2.6%, a Neu [7] of 16% and a Plat [7] of 125.4 x10_4/uL. For the same sequence, the RBC [7] was 618.6 x10_4/ul, the Ret [7] was 5.8% and the WBC [7] was 109.8 x10_2/uL. It also gave a KIDNEY_L [7] of 1 g, a KIDNEY_R [7] of 1 g and a KIDNEY_TOTAL [7] of 2 g. It also gave an ALP [8] of 1416.8 IU/L, an AST [8] of 71.6 IU/L and a BUN [8] of 15 mg/dL. For the same sequence, the CRE [8] was 0.2 mg/dL, the DBIL [8] was 0 mg/dL and the IP [8] was 6.9 mg/dL. The K [8] was 4.4 meq/L, the LDH [8] was 156.8 IU/L and the Na [8] was 140.4 meq/L. The PL [8] was 138.2 mg/dL, the RALB [8] was 3 g/dL and the TBIL [8] was 0.012 mg/dL. It also gave a TC [8] of 68.4 mg/dL, a TG [8] of 114.4 mg/dL and a TP [8] of 5.4 g/dL. The gamma-GTP [8] was 1.4 IU/L, the TERMINAL_BW (10 mg/kg, 3 h, dose level Low) was 211.7 g and the APTT (10 mg/kg, 3 h, dose level Low) was 22.2 s. For the same sequence, the Bas (10 mg/kg, 3 h, dose level Low) was 0%, the Eos (10 mg/kg, 3 h, dose level Low) was 0.2% and the Fbg (10 mg/kg, 3 h, dose level Low) was 301.8 mg/dL. It also gave a Hb (10 mg/kg, 3 h, dose level Low) of 13 g/dL and a Ht (10 mg/kg, 3 h, dose level Low) of 38.1%.
